Measured values from ChEMBL document CHEMBL5727468, “Piperidine compounds as PCSK9 inhibitors” (2019).

These molecules were tested against Proprotein convertase subtilisin/kexin type 9 (Homo sapiens, UniProt Q8NBP7) (assay: In Vitro Screening Experiment: 1. […] Data Analysis:Date was analyzed with Prismsoftware (nonlinear regression (Sigmoidal dose-response-variable slope)Inhibition ratio %=100*(Sample reading−LC reading)/(HC reading−LC reading).).
Chain of Proprotein convertase subtilisin/kexin type 9 (Q8NBP7 31-152 limits assumed): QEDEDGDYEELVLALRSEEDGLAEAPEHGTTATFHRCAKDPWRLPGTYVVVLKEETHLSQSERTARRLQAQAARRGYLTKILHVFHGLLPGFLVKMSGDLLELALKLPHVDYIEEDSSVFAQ
Chain of Proprotein convertase subtilisin/kexin type 9 (Q8NBP7 153-692 limits assumed): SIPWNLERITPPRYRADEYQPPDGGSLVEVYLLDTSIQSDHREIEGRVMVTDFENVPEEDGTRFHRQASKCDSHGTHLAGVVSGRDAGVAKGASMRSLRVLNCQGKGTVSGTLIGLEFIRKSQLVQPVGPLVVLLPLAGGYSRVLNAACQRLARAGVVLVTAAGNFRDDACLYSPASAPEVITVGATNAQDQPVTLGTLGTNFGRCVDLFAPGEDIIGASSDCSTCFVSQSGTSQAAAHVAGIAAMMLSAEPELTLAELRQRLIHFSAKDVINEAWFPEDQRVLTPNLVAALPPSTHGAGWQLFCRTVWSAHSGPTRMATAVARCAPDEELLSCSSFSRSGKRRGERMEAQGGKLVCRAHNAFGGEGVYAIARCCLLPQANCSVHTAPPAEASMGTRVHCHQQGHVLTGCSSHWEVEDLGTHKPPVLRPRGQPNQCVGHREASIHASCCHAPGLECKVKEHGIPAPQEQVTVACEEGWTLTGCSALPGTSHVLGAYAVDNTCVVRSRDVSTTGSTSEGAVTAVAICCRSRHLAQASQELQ

Compound | IC50 [µM]
CC1(C)ON=C(c2ccc(C(=O)N(c3ncccc3C3CC3)[C@@H]3CCCNC3)cc2)C1=O | < 10
COC1C(c2ccc(C(=O)N(c3ncccc3Cl)[C@@H]3CCCNC3)cc2)=NOC1(C)C (some centres not stated) | < 10
Cc1cccnc1N(C(=O)c1ccc(C2=NOC(C)(C)C2=O)cn1)[C@@H]1CCCNC1 | < 10
COCCOC1C(c2ccc(C(=O)N(c3ncccc3C)[C@@H]3CCCNC3)cc2)=NOC1(C)C (some centres not stated) | < 10

More lines, now with the values ahead:

IC50 [µM] | Compound
< 10 | CCc1cccnc1N(C(=O)c1ccc(C2=NOC(C)(C)C2=O)cc1)[C@@H]1CCCNC1
< 10 | Cc1cccnc1N(C(=O)c1ccc(C2=NOC(C)(C)C2(C)O)cc1)[C@@H]1CCCNC1 (some centres not stated)
< 10 | CC1(C)ON=C(c2ccc(C(=O)N(c3nccc4ccccc34)[C@@H]3CCCNC3)cc2)C1=O
